According to PubChem BioAssay AID179 (DTP/NCI, 2004):
Where “and” joins values, the source holds several entries; their conditions need not be identical. Identical values can stand only once. Calls of active or inactive are those of the source.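 How the source made its calls: active means compounds giving half or more protection of infected cells from virus-caused growth loss, again on retest; inactive means the rest.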 Where a SMILES comes first, the peptide text is derived from it. The star is where a group is joined. ONb = O=[N+]([O-])c1ccc(CO*)cc1; Boc = CC(C)(C)OC(=O)*

System: CEM cells HIV-1 protection, formazan growth assay
Assay: NCI AIDS Antiviral Assay
Conditions: for IC50: measured here: growth of uninfected CEM cells
Method in brief: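 Protection of CEM cells against HIV-1 measured as cell growth via soluble formazan read-out, with five concentrations tested on both infected and uninfected cells; failure to protect may reflect toxicity.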

## CCOc1ccc(N=Cc2ccnc3ccccc23)cc1
  outcome: inactive

## O=C1NCCS(=O)(=O)N[C@@H](CC2=CC=CCC2)C(=O)N2CCCC12 (some centres not stated)
  EC50: > 708 µM
  IC50: > 708 µM

## CC(C)CCC[C@@H](C)C1CCC2[C@@H]3CC=C4C[C@@H](OP(=O)(O)OCCN(C)C)CC[C@]4(C)C3CC[C@@]21C (some centres not stated)
  EC50: > 87.1 µM
  IC50: 11.7 µM

## COC1=NC2=NCCN2C(OC)=N1
  EC50: > 200 µM
  IC50: > 200 µM

## CC(C)CC(NC(=O)OC(C)(C)C)C(=O)NC(CCC(=O)OCc1ccc([N+](=O)[O-])cc1)C(=O)OCc1ccc([N+](=O)[O-])cc1 (stereo not drawn) (Boc-Leu-Glu(ONb)-ONb; configuration not given here)
  EC50: > 200 µM
  IC50: 10.7 µM

## NS(=O)(=O)c1ccccc1C(=O)N/N=C(\c1nc2ccc([N+](=O)[O-])cc2[nH]c1=O)C(O)c1ccc([N+](=O)[O-])cc1 (configuration not stated)
  EC50: > 120 µM
  IC50: 107 µM

## O=C1NC2C=CN(Cc3ccccc3)C=C2C(=O)N2CCCC12 (configuration not stated)
  EC50: > 6.46 µM
  IC50: > 6.46 µM

## CC(C)=CC[C@]12CCN[C@H]1N(S(=O)(=O)c1ccccc1)c1ccccc12
  EC50: > 200 µM
  IC50: 30.9 µM

## CC(C)(C)OC(=O)NC1CCC[C@H]1O (some centres not stated)
  outcome: inactive

## C=CN1C(=O)OC(c2ccccc2)C1c1ccccc1 (configuration not stated)
  EC50: > 93.3 µM
  IC50: > 79.4 µM and 30.2 µM

## CCOP(=O)(OCC)C1CC(O)CN1OC(=O)C(C)(C)C (configuration not stated)
  EC50: > 200 µM
  IC50: > 200 µM

## COc1cc(C2c3cc4c(c(O)c3C[C@H]3COC(=O)[C@@H]23)OCO4)cc(OC)c1OC (some centres not stated)
  EC50: > 200 µM
  IC50: 0.468 µM

## CC1=C(C(=O)Nc2ccccc2)C(c2ccc(N(C)C)cc2)C(C(=O)Nc2ccccc2)=C(C)N1
  outcome: inactive

## O=C(CC(=O)n1nc(-c2ccccc2)c(N=Nc2ccc(Cl)cc2)c1-c1ccccc1)Nc1cccc(Cl)c1
  EC50: > 200 µM
  IC50: 81.3 µM

## N#C/C(=C\N1C(=O)/C(=C/c2cccc([N+](=O)[O-])c2)SC1=S)c1nc2ccccc2s1
  EC50: > 200 µM
  IC50: 29.5 µM

## Nc1ncnc2c1ncn2CC(=O)NCCCO
  EC50: > 200 µM
  IC50: > 200 µM

## Cc1cc(OC(=O)NCn2cc(-c3ccccc3)nn2)ccc1Cl
  EC50: > 200 µM
  IC50: 95.5 µM

## COc1ccccc1NC(=O)/C(=C/n1c(=S)sc2ccccc21)C(C)=O
  EC50: > 200 µM
  IC50: 115 µM

## COc1cc(C=C2N=C(c3ccccc3)N(n3c(-c4ccccc4)nc4ccccc4c3=O)C2=O)cc(OC)c1OC
  EC50: > 200 µM
  IC50: 30.9 µM

## CN(C)CCCNC(=O)c1cc(NC(=O)c2cc(NC(=O)c3cc(NC(=O)CCCn4ccc(CO)c4CO)cn3C)cn2C)cn1C
  EC50: > 20 µM
  IC50: 0.38 µM

## COc1cccc2c(NNc3ccccc3)c3ccc([N+](=O)[O-])cc3nc12
  EC50: > 22.4 µM
  IC50: 16.2 µM

## NC1=C(O)c2cccc3cccc(c23)C1=O
  outcome: inactive

## O=C1CC(c2ccccc2)=NO1
  EC50: > 200 µM
  IC50: > 200 µM

## O=C1CCCc2c(O)ccc(O)c21
  EC50: > 380 µM
  IC50: 60.3 µM

## Cc1cccc(C)c1NC(=O)CCCC(=O)C1/C(=N/NC(=O)CC#N)CCC/C1=N\NC(=O)CC#N (configuration not stated)
  EC50: > 72.4 µM
  IC50: > 72.4 µM

## CC(=O)Nc1ccc(C(=O)NN2C(=O)C(Cl)C2c2cc(Br)cc(Br)c2O)cc1 (configuration not stated)
  outcome: inactive

## CCC(=O)N(C)[C@@H](C)C(=O)O[C@H]1CC(=O)N(C)c2cc(cc(OC)c2Cl)C/C(C)=C/C=C[C@@H](OC)[C@@]2(O)C[C@H](OC(=O)N2)[C@@H](C)[C@@H]2O[C@@]12C
  outcome: inactive

## N#Cc1c2c(cn3c1nc1ccccc13)CCCCC2
  EC50: > 151 µM
  IC50: > 151 µM

## O=C1NC2OC(C(O)CO)C(O)C2O1 (configuration not stated)
  EC50: > 200 µM
  IC50: > 200 µM

## COc1ccc2c(c1O)C(=O)C(CCC(=O)O)CC2 (configuration not stated)
  outcome: inactive

## CCOC(=O)C1CCCC1S(=O)(=O)c1ccc(C)cc1 (configuration not stated)
  EC50: > 200 µM
  IC50: > 200 µM

## CCCC(C(=O)OC)C1N=C(NC#N)N(Cc2ccccc2)C1=O (configuration not stated)
  EC50: > 110 µM
  IC50: > 110 µM

## COc1ccc(-c2cc(C(=O)Nc3ccc(C)c(C)c3)nc(NC#N)n2)cc1
  EC50: > 339 µM
  IC50: > 339 µM

## O=[N+]([O-])c1ccc2c(c1)NC(O)C(O)N2 (configuration not stated)
  EC50: > 200 µM
  IC50: 174 µM

## CC(Cl)c1nc2c(c(=O)[nH]1)C1CCCCCCCN1C(=S)N2C (configuration not stated)
  EC50: > 200 µM
  IC50: 12.3 µM

## CC1(C)OC(=O)C(C)(C)C(=O)O1
  outcome: inactive

## CC(C)N(C(=O)C12C3C4C1C1C2C3C41C(N)=O)C(C)C (configuration not stated)
  EC50: > 912 µM
  IC50: > 912 µM

## NC(CSS(=O)(=O)O)=NCc1cccs1
  EC50: > 200 µM
  IC50: > 100 µM

## O=[N+]([O-])c1ccc(C2ON=C(c3ccccc3)N2C23CC4CC(CC(C4)C2)C3)cc1 (configuration not stated)
  EC50: > 200 µM
  IC50: 186 µM

## O=S(=O)(CC#CCO)c1cccc2ccccc12
  outcome: inactive

## C=C1CC(Cn2cc(Br)c(=O)[nH]c2=O)(c2ccc(Br)cc2)OC1=O (configuration not stated)
  EC50: > 20 µM
  IC50: 0.759 µM

## Nc1ccc(C(=O)CC2(O)C(=O)Nc3c(Cl)cc(Cl)cc32)cc1 (configuration not stated)
  EC50: > 33.9 µM
  IC50: 18.6 µM

## O=c1ccc2ccc(O)c(O)c2o1
  EC50: > 1410 µM
  IC50: 66.1 µM
